Assay results published in patent US6852696B2, “Inhibitors of glycosaminoglycans” (The University of Texas System, priority 1999, dated 2005).

Tested on: DC-associated HA
Assay: Binding of biotinylated peptide to DC surfaces
Details: biotinylated form
Experimental: FIGS. 8B-D. Synthesis and surface expression of HA by DC. (B) XS106 DC were labeled with ^3H-glucosamine and then examined for the incorporation of hyaluronidase-sensitive radioactivities (means+/−s.e.m.; n=5) into the indicated subcellular fractions. (C) XS106 DC were incubated with biotinylated Pep-1 or RP and then with PE-conjugated streptavidin (filed histograms) (Mummert et al. J. Exp. Med. 192:769-779, 2000) or bovine testis hyaluronidase. Baseline staining levels with PE-streptavidin alone are shown with open histograms. (D) The indicated DC preparations were examined for binding of biotinylated Pep-1 (filled) and RP (open). Peptide binding to splenic DC and bone marrow-DC was examined within the CD11c^+ populations.

- binding to surfaces of XS106 DC: no significant binding
Sequence: SATPASAPYPLA [RP, reference compound]
